In patent US5783562A, “Luteinizing hormone releasing hormone analogs” (Asta Medica Aktiengesellschaft, priority 1990, dated 1998):
Read-outs that look alike come from different tables or passages of the source. Non-standard residues stand in square brackets, D forms with d. Residues, ends and D or L forms follow the SMILES beside them. dPhe(4-Cl) = N[C@H](Cc1ccc(Cl)cc1)C(=O)O; d2Nal = N[C@H](Cc1ccc2ccccc2c1)C(=O)O; d3Pal = N[C@H](Cc1cccnc1)C(=O)O

How the values were obtained:
[1] = test system: rat ovulation; test: Corbin's rat antiovulation method (antiovulatory activity, AOA); format: in vivo; conditions: in saline, at noon of proestrus, female SD rats
Protocol: Corbin's rat antiovulation method was used in the present invention. Healthy, adult, female SD rats (BW 200-250 g) were used in this experiment. All animals were maintained at 22°-24° C. and on a 14 hr./10 hr. (light/dark) schedule. They were given standard food and water ad libitum. Only those rats showing at least two consecutive 4-day estrous cycles in vaginal smear examination could be used in this experiment. The rats were given peptides (LHRH antagonists) at noon of proestrus with different doses in saline solution. The rats were sacrificed the next day, and both portions of their oviducts were examined using a dissecting microscope in order to determine the ovum number. The rats were divided into several groups according to the dosing, and each group consisted of about 10 rats. The control group, which was given an equivalent amount of saline, consisted of 9-10 rats. […] Evaluation of Histamine Releasing Activity

[2] = test system: mast cells; format: cell-based, rat
Protocol: The healthy, adult, male SD rats (BW 200-250 g) used in this experiment were housed in the same conditions as for the adult, female SD rats above. After anesthetizing with CO2, the peritoneal cavity was washed with 50 ml of PIPES AC medium containing 20 units of heparin. Following centrifugation at 200×g for 8 min. at 4° C., the cells were washed again and resuspended to a concentration of 8-to-24×10^5 total leukocytes/ml in […]. This suspension contained approximately 5-10% mast cells. Washed cells were used immediately after collection and were prewarmed for 5 min. at 37° C. prior to pipetting 0.3 ml aliquots into polystyrene tubes containing 0.3 ml of diluted peptide. The mixtures were incubated for 15 min. at 37° C., and the reaction was stopped by centrifugation at 400×g for 15 min. at 4° C. The supernatants were assayed for histamine content by manual fluorometric assay method after successful extraction with n-butanol and n-heptane. The histamine content can be obtained from the histamine standard curve (see below). The percentage of histamine release can be calculated from the following equation: [formula] where E is the fluorometric reading of the experimental sample, B is the fluorometric reading of samples with cells and buffer only, and C is the fluorometric reading of "complete" samples (cells treated with HCIO4). The standard curve can be obtained by plotting the OD values on a fluorometer at 350 nm/450 nm (activation/fluorescent) against the concentrations of serially diluted solutions of accurately weighed histamine hydrochloride. The relative parameter (r) of the histamine standard curve can be 0.9998, and the lowest detectable concentration of histamine is 0.5 ng/ml. The ED50 value of a peptide can be determined from the dose response curves obtained by plotting the histamine release versus the peptide concentration on semilogarithmic paper. All peptide samples should be tested with mast cells from a minimum of 3 different rats.

[3] = test system: mast cells; conditions: neuropeptide SP, background; cited from earlier work
[4] = Water-solubility / hydrophilicity of the peptides; format: physicochemical

NAc-D2Nal^1 -DpClPhe^2 -DPhe^3 Ser^4 -Arg^5 -D3Pal^6 -Leu^7 -Arg^8 -Pro^9 -DAla^10 -NH2 [V]
% AOA/μg 0.25 ([1]; 0.25 μg): 29% | % AOA/μg 0.5 ([1]; 0.5 μg): 60% | % AOA/μg 1.0 ([1]; 1.0 μg): 100% | HRA (μg/ml) ED50 ± SEM ([2]; in vitro histamine release, rat peritoneal mast cells): 7.4 µg/mL

CC(=O)N[C@H](Cc1ccc2ccccc2c1)C(=O)N[C@H](Cc1ccc(Cl)cc1)C(=O)N[C@H](Cc1cccnc1)C(=O)N[C@@H](CO)C(=O)N[C@@H](Cc1ccc(O)cc1)C(=O)N[C@H](Cc1cccnc1)C(=O)N[C@@H](CC(C)C)C(=O)N[C@@H](CCCNC(=N)N)C(=O)N1CCC[C@H]1C(=O)N[C@H](C)C(N)=O [III, NAc-D2Nal^1 -DpClPhe^2 -D3Pal^3 -Ser^4 -Tyr^5 -D3Pal^6 -Leu^7 -Arg^8 -Pro^9 -DAla^10 -NH2] (Ac-[d2Nal][dPhe(4-Cl)][d3Pal]SY[d3Pal]LRP[dA]-NH2)
HRA (μg/ml) ED50 ± SEM [2]: 9.8 µg/mL

Arg^1 -Pro^2 -Lys^3 -Pro^4 -Gln^5 -Gln^6 -Phe^7 -Phe^8 -Gly^9 -Leu^10 -Met^11 -NH2 [neuropeptide SP]
ED50 for HRA [3]: 5 to 15 µM

CC(=O)N[C@H](Cc1ccc2ccccc2c1)C(=O)N[C@H](Cc1ccc(Cl)cc1)C(=O)N[C@H](Cc1cccnc1)C(=O)N[C@@H](CO)C(=O)N[C@@H](CCCNC(=N)N)C(=O)N[C@H](Cc1cccnc1)C(=O)N[C@@H](CC(C)C)C(=O)N[C@@H](CCCNC(=N)N)C(=O)N1CCC[C@H]1C(=O)N[C@H](C)C(N)=O [IV, NAc-D2Nal^1 -DpClPhe^2 -D3Pal^3 -Ser^4 -Arg^5 -D3Pal^6 -Leu^7 -Arg^8 -Pro^9 -DAla^10 -NH2] (Ac-[d2Nal][dPhe(4-Cl)][d3Pal]SR[d3Pal]LRP[dA]-NH2)
hydrophilicity [4]: very strong hydrophilicity

CC(=O)N[C@H](Cc1ccc2ccccc2c1)C(=O)N[C@H](Cc1ccc(Cl)cc1)C(=O)N[C@H](Cc1ccc(O)cc1)C(=O)N[C@@H](CO)C(=O)N[C@@H](CCCCN)C(=O)N[C@H](Cc1cccnc1)C(=O)N[C@@H](CC(C)C)C(=O)N[C@@H](CCCNC(=N)N)C(=O)N1CCC[C@H]1C(=O)N[C@H](C)C(N)=O [Compound 4] (Ac-[d2Nal][dPhe(4-Cl)][dY]SK[d3Pal]LRP[dA]-NH2)
HRA (μg/ml) ED50 ± SEM [2]: 6.1 µg/mL
